Data from ChEMBL document CHEMBL3603819, “Targeting zoonotic viruses: Structure-based inhibition of the 3C-like protease from bat coronavirus HKU4--The likely reservoir host to the human coronavirus that causes Middle East Respiratory Syndrome (MERS)” (Bioorg Med Chem, 2015).
pIC50: −log10 of the molar value.

Columns and labels:
[1] = test system: Pipistrellus bat coronavirus HKU5; assay: Inhibition of Bat coronavirus HKU5 3CLpro at 100 uM relative to control
[2] = test system: Tylonycteris bat coronavirus HKU4; conditions: at 100 µM
[3] = Inhibition of Bat coronavirus HKU5 3CLpro; design: species or system Pipistrellus bat coronavirus HKU5

| Structure (SMILES) | inhibition [2] [%] | further results |
| --- | --- | --- |
| O=C(Nc1ccc(N(Cc2ccsc2)C(=O)Cn2nnc3ccccc32)cc1)c1cccs1 | 93 | inhibition [1]: 91%; pIC50 [3]: 6.27 |
| CC(C)(C)NC(=O)C(c1cccnc1)N(C(=O)c1ccco1)c1ccc(-c2cccn2C(=O)OC(C)(C)C)cc1 (centres undefined) | 17 |  |
| CC(C)(C)NC(=O)C(c1ccsc1)N(C(=O)Cn1nnc2ccccc21)c1ccc(NC(=O)C2CCCCC2)cc1 (centres undefined) | 21 |  |
| CC(C)(C)NC(=O)C(c1cccnc1)N(C(=O)c1ccc(C#N)cc1)c1ccc(F)cc1 (centres undefined) | 53 |  |
| CC(C)(C)NC(=O)C(c1ccsc1)N(C(=O)c1ccco1)c1ccc(C(C)(C)C)cc1 (centres undefined) | 19 |  |
| CNc1ccc(N(Cc2ccsc2)C(=O)Cn2nnc3ccccc32)cc1 | 91 |  |
| CC(C)(C)NC(=O)C(c1ccsc1)N(C(=O)Cc1cccnc1)c1ccc(F)cc1 (centres undefined) | 24 |  |
| CC(C)(C)NC(=O)C(c1cccnc1)N(C(=O)c1ccco1)c1ccc(-c2ccnc(F)c2)cc1 (centres undefined) | 16 |  |
| CC(C)(C)NC(=O)C(c1ccsc1)N(C(=O)Cc1cccnc1)C1CC1 (centres undefined) | 16 |  |
| CC(C)(C)NC(=O)C(c1cccnc1)N(C(=O)c1ccco1)c1ccc(-c2ccccc2)cc1 (centres undefined) | 22 |  |
| CC(C)c1ccc(N(C(=O)Cc2cccnc2)C(C(=O)NC(C)(C)C)c2cccnc2)cc1 (centres undefined) | 41 |  |
| CC(C)(C)NC(=O)C(c1cccnc1)N(C(=O)CO)c1ccc(C(C)(C)C)cc1 (centres undefined) | 29 |  |
| O=C(Cn1nnc2ccccc21)N(Cc1ccsc1)c1ccc(NC(=O)C(F)(F)F)cc1 | 92 |  |
| CC(C)(C)NC(=O)C(c1ccsc1)N(C(=O)Cc1c[nH]c2ccccc12)C1CC1 (centres undefined) | 17 |  |
| CC(C)(C)NC(=O)C(c1ccsc1)N(C(=O)Cc1cccc2ccccc12)C1CC1 (centres undefined) | 22 |  |
| CC(C)(C)NC(=O)C(c1cccnc1)N(C(=O)c1ccco1)c1ccc(OC(F)F)cc1 (centres undefined) | 31 |  |
| O=C(Nc1ccc(N(C(=O)Cn2nnc3ccccc32)C(C(=O)NCc2ccccc2)c2cccc(F)c2)cc1)C1CCC1 (centres undefined) | 74 |  |
| O=C(Cn1nnc2ccccc21)N(Cc1ccsc1)c1ccc(-c2ccncc2)cc1 | 98 |  |
| CC(C)(C)NC(=O)C(c1cccnc1)N(C(=O)c1ccc(C#N)cc1)c1ccc(OCF)cc1 (centres undefined) | 15 |  |
| CC(C)(C)NC(=O)C(c1cccnc1)N(C(=O)Cc1cccc2ccccc12)c1ccc(F)cc1 (centres undefined) | 22 |  |
| CC(C)COC(=O)Nc1ccc(N(Cc2ccsc2)C(=O)Cn2nnc3ccccc32)cc1 | 75 |  |
| CC(C)(C)NC(=O)C(c1cccnc1)N(C(=O)Cc1cccc2ccccc12)C1CC1 (centres undefined) | 11 |  |
| CC(C)(C)NC(=O)C(c1ccsc1)N(C(=O)Cn1nnc2ccccc21)c1ccc(NC(=O)C2CCC2)cc1 (centres undefined) | 20 |  |
| CC(C)(C)NC(=O)C(c1ccsc1)N(C(=O)c1ccc(C(F)(F)F)cn1)c1ccc(OCF)cc1 (centres undefined) | 18 |  |
| CC(C)(C)NC(=O)C(c1cccnc1)N(C(=O)c1ccc(C(F)(F)F)o1)c1ccc(C(C)(C)C)cc1 (centres undefined) | 16 |  |
| Cc1nccn1CC(=O)N(c1ccc(N)cc1)C(C(=O)NC(C)(C)C)c1ccsc1 (centres undefined) | 17 |  |

| Structure (SMILES) | inhibition [2] [%] | further results |
| --- | --- | --- |
| CC(C)(C)NC(=O)C(c1cccnc1)N(C(=O)c1ccco1)c1ccc(-c2cncnc2)cc1 (centres undefined) | 14 |  |
| O=C(Nc1ccc(N(Cc2ccsc2)C(=O)Cn2nnc3ccccc32)cc1)c1ccccc1 | 90 |  |
| COCC(=O)N(c1ccc(C(C)C)cc1)C(C(=O)NC(C)(C)C)c1cccnc1 (centres undefined) | 23 |  |
| CC(C)(C)NC(=O)C(c1ccsc1)N(C(=O)Cn1nnc2ccccc21)c1ccc(N)cc1 (centres undefined) | 64 |  |
| CC(C)(C)NC(=O)C(c1ccsc1)N(C(=O)c1ccc(C#N)cc1)C1CC1 (centres undefined) | 20 |  |
| CC(C)(C)NC(=O)C(c1c[nH]cn1)N(C(=O)c1ccco1)c1ccc(C(C)(C)C)cc1 (centres undefined) | 9 |  |
| CC(=O)Nc1ccc(N(C(=O)Cn2cc(-c3ccccc3)nn2)C(C(=O)NC(C)(C)C)c2ccsc2)cc1 (centres undefined) | 19 |  |
| CC(C)(C)OC(=O)n1cccc1-c1ccc(N(Cc2ccsc2)C(=O)Cn2nnc3ccccc32)cc1 | 31 |  |
| CC(C)(C)NC(=O)C(c1ccsc1)N(C(=O)c1ccc(C#N)cc1)c1ccc(C(C)(C)C)cc1 (centres undefined) | 18 |  |
| CC(C)Oc1ccc(N(C(=O)c2ccco2)C(C(=O)NC(C)(C)C)c2cccnc2)cc1 (centres undefined) | 13 |  |
| CCC(=O)Nc1ccc(N(C(=O)Cn2ccnc2C)C(C(=O)NC(C)(C)C)c2ccsc2)cc1 (centres undefined) | 19 |  |
| COc1ccccc1C(=O)N(c1ccc(C(C)(C)C)cc1)C(C(=O)NC(C)(C)C)c1cccnc1 (centres undefined) | 17 |  |
| CC(C)(C)NC(=O)C(c1cccnc1)N(C(=O)c1ccco1)c1ccc(-c2cccc(C#N)c2)cc1 (centres undefined) | 16 |  |
| CC(C)(C)NC(=O)C(c1cccnc1)N(C(=O)c1ccco1)c1ccc(-c2ccccn2)cc1 (centres undefined) | 15 |  |
| CC(C)c1ccc(N(C(=O)c2ccco2)C(C(=O)NC(C)(C)C)c2cccnc2)cc1 (centres undefined) | 34 |  |
| Cc1noc(C)c1-c1ccc(N(C(=O)c2ccco2)C(C(=O)NC(C)(C)C)c2cccnc2)cc1 (centres undefined) | 28 |  |
| CC(C)(C)NC(=O)C(c1ccsc1)N(C(=O)c1cccc2c1CCCC2)c1ccc(C(C)(C)C)cc1 (centres undefined) | 14 |  |
| CC(C)(C)NC(=O)C(c1cccnc1)N(C(=O)Cc1cccnc1)c1ccc(OCF)cc1 (centres undefined) | 18 |  |
| Cc1nc2ccccc2n1CC(=O)N(c1ccc(NS(C)(=O)=O)cc1)C(C(=O)NC(C)(C)C)c1ccsc1 (centres undefined) | 13 |  |
| CC(C)(C)NC(=O)C(c1cccnc1)N(C(=O)c1ccc(Cl)cc1)c1ccc(C(C)(C)C)cc1 (centres undefined) | 27 |  |
| CC(C)(C)NC(=O)C(c1ccsc1)N(C(=O)Cn1nnc2ccccc21)c1ccc(NC(=O)c2ccno2)cc1 (centres undefined) | 76 |  |
| O=C(Cn1nnc2ccccc21)N(Cc1ccsc1)c1ccc(NCc2ccccc2)cc1 | 64 |  |
| Cc1nccn1CC(=O)N(c1ccc(C(C)(C)C)cc1)C(C(=O)NC(C)(C)C)c1ccsc1 (centres undefined) | 11 |  |
| CC(C)(C)NC(=O)C(c1cccnc1)N(C(=O)c1cc[nH]n1)c1ccc(C(C)(C)C)cc1 (stereo in doubt; 53B) | 28 |  |
| CC(C)(C)NC(=O)C(c1cccnc1)N(C(=O)c1cccc2c1CCCC2)c1ccc(F)cc1 (centres undefined) | 22 |  |
| COc1cccc(Oc2ccc(N(C(=O)c3ccco3)C(C(=O)NC(C)(C)C)c3cccnc3)cc2)c1 (centres undefined) | 18 |  |
